Reference: patent US10596234B2, “Compositions and methods to inhibit viral replication” (priority 2016, dated 2020)

Tests used:
cGAS [1] = assay: In vitro deamidation assay (cGAS); type: biochemical, mouse; conditions: purified proteins
Procedure: The in vitro deamidation assay was performed as previously described. Briefly, 5 μg of purified MBP-mcGAS or MBP-mcGAS-DDEE mutant on amylose resin was incubated with 0.5 gig of purified FLAG-UL37 or FLAG-UL37C819S at 30° C. for 45 min in deamidation buffer (50 mM Tris-HCl [pH 7.5], 100 mM NaCl, and 5 mM MgCl2). Then the reaction was stopped by adding rehydration buffer and the eluted proteins were analyzed by two-dimensional gel electrophoresis.

RIG-I = molecular target: T1, RIG-I (Homo sapiens, UniProt O95786, D580E); assay: In vitro deamidation assay (RIG-I); type: biochemical; conditions: protein purified from E. coli, 2-DGE
T1 construct: made in house; host or cells: GST-RIG-I: transfected 293T cells; UL37: E. coli
T1 sequence (O95786 1-925 D580E): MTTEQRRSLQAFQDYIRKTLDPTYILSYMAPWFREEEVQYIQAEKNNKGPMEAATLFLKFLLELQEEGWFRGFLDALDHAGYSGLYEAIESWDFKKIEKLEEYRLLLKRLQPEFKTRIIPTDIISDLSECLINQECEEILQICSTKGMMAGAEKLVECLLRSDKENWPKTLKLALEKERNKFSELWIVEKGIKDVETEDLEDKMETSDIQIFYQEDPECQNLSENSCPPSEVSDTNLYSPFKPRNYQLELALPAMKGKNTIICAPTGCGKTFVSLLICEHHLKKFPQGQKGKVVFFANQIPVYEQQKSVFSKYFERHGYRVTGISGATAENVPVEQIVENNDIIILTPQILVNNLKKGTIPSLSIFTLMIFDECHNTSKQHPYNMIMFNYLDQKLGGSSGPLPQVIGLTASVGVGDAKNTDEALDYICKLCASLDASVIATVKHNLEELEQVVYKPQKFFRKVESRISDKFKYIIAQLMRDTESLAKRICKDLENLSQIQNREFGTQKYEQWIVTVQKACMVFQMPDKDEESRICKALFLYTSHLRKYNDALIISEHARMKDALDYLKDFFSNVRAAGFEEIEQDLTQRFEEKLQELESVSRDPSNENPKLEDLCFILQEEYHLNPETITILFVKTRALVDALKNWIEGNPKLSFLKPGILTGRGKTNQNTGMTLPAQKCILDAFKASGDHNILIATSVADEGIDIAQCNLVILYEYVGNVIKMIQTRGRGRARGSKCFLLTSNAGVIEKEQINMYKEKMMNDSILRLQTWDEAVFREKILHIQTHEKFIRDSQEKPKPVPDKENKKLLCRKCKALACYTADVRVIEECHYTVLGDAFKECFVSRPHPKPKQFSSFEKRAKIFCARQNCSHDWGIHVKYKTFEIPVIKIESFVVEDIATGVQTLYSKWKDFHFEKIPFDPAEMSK
Procedure: GST-RIG-I was purified from transfected 293T cells to homogeneity as determined by silver staining. In vitro on-column deamidation of RIG-I was performed as previously reported (He et al., 2015). Briefly, ˜0.2 μg of His-tagged UL37/UL37 (571-1123) expressed and purified from E. coli, and 0.6 μg of GST-RIG-I (bound to glutathione-conjugated agarose) were added to a total volume of 30 μl. The reaction was carried out at 30° C. for 45 min in deamidation buffer (50 mM Tris-HCl, pH 7.5, 100 mM NaCl, 5 mM MgCl2). Protein-bound GST beads were washed with deamidation buffer and GST-RIG-I was eluted with rehydration buffer (6 M Urea, 2 M Thio-urea, 2% CHAPS, 0.5% IPG Buffer, 0.002% bromophenol blue) at room temperature. Samples were then analyzed by two-dimensional gel electrophoresis and immunoblotting.

[2] = tested on: interferon-stimulating DNA (ISD); assay: Precipitation of biotinylated interferon-stimulating DNA (ISD) with cGAS; type: binding
IFN-β = IFN-β ELISA, 293T cells stably expressing UL37 infected with Sendai virus; type: cell-based, human; conditions: UL37 expression, SeV infection, 16 hpi
Procedure: Commercial cytokine ELISA kits used in this study include: human IFN-β (PBL Assay Science) and human RANTES (R&D Systems). Cytokine levels in the supernatant from cultured cells were assessed according to manufacturer's instruction. Absorbance was determined with FLUOstar Omega (BMG Labtech.).

cGAS [3] = assay: cGAMP reporter assay (THP1-Lucia); type: cell-based, human; conditions: THP-1 cells transfected with HT-DNA (HT-DNA alone approximately 60 ng)
Procedure: THP-1 Cells were transfected with HT-DNA (2 μg/ml) or infected with HSV-1 virus for 6 h. Cell extracts were prepared by heating at 95° C. for 5 min to denature most proteins, and then the precipitated proteins were removed by centrifugation. The supernatant containing cGAMP was delivered to digitonin-permeabilized (2.5 μg/ml for 30 min) THP1-Lucia cells at 37° C. for 30 min. The cells were cultured for another 20 h before Lucia reporter activity was measured according to the manufacturer's instruction (InvivoGen). Pure cGAMP was diluted and used as standard for the assay.

cGAS [4] = molecular target: T2, cGAS (Mus musculus, UniProt Q8C6L5); assay: In vitro cGAMP activity assay; type: biochemical; conditions: in vitro cGAMP reaction
T2 construct: Purified mcGAS(141-507) was deamidated by purified FLAG-UL37 in vitro; made in house; host or cells: E. coli BL21 (DE3)
T2 sequence (Q8C6L5 141-507): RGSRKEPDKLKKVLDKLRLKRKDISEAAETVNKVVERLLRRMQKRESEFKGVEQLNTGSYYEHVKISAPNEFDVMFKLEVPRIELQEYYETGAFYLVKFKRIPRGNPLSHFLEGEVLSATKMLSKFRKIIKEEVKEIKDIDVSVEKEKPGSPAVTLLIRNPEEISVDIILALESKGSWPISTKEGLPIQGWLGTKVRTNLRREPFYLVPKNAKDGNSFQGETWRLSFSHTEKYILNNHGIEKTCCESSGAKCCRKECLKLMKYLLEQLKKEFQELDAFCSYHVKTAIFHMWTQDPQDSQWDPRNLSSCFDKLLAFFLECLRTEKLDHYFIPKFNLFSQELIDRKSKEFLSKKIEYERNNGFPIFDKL
Procedure: 1 μM of MBP-cGAS or mutant proteins was mixed with 100 μM ATP and 100 μM GTP and 10 μCi [α-P32]-ATP in reaction buffer (20 mM Tris-Cl [pH 7.5], 150 mM NaCl, 5 mM MgCl2, 1 mM dithiothreitol [DTT]). After 2 h of incubation at 37° C., 2 μl of reaction solution was spotted onto PEI-Cellulose thin layer chromatography plate (Sigma). Reaction products were resolved with running buffer (1 M (NH4)2SO4, 1.5 M KH2PO4, pH 3.8). The TLC plates were dried and scanned with Phosphoimager (Fuji).

cGAS [5] = assay: Real-time PCR in THP-1 cells stably expressing UL37, transfected with HT-DNA; type: cell-based, human
Procedure: THP-1 or L929 cells were infected with HSV-1 (MOI=5) or stimulated with HT-DNA (2 μg/ml) or cGAMP (2 μg/ml) for 6 h unless specifically indicated otherwise. Cells were washed with cold PBS, and total RNA was extracted by using TRIzol Reagent (Invitrogen). RNA was digested with DNase I (New England Biolabs) to remove genomic DNA. One microgram of total RNA was used for reverse transcription with PrimeScript Reverse Transcriptase (Clontech) according to the manufacturer's instruction. Approximately 0.5% of the cDNA was used as template in each quantitative real-time PCR (qRT-PCR) reaction with SYBR master mix (Applied biosystems).
Lentivirus production was carried out in 293T cells as described previously. THP-1 or L929 cells were infected with lentivirus containing UL37 or UL37 C819S mutant. After 36 h, THP-1 cells were selected with puromycin at 1 μg/ml and L929 cells were selected with puromycin at 5 μg/ml.

cGAS [6] = assay: Tandem mass spectrometry quantification of cGAS deamidation; type: biochemical, mouse; conditions: UL37 expression; N196, N377, Q436, Q439
Procedure: Purified mcGAS(141-507) was deamidated by purified FLAG-UL37 in vitro. Then the samples were resolved with SDS-PAGE and the mcGAS bands were excised and applied to LC/MS/MS analysis. The analysis of samples was carried out using a Thermo Scientific Q-Exactive hybrid Quadrupole-Orbitrap Mass Spectrometer and a Thermo Dionex UltiMate 3000 RSLCnano System. Peptide mixtures from each sample were loaded onto a peptide trap cartridge at a flow rate of 5 μL/min. The trapped peptides were eluted onto a reversed-phase PicoFrit column (New Objective, Woburn, Mass.) using a linear gradient of acetonitrile (3-36%) in 0.1% formic acid. The elution duration was 120 min at a flow rate of 0.3 μl/min. Eluted peptides from the PicoFrit column were ionized and sprayed into the mass spectrometer, using a Nanospray Flex Ion Source ES071 (Thermo) under the following settings: spray voltage, 2.0 kV, Capillary temperature, 250° C. Other settings were empirically determined. Raw data files were searched against mouse protein sequence database obtained from NCBI website using the Proteome Discoverer 1.4 software (Thermo, San Jose, Calif.) based on the SEQUEST algorithm. Carbamidomethylation (+57.021 Da) of cysteines was fixed modification, and Oxidation and Deamidation Q/N-deamidated (+0.98402 Da) were set as dynamic modifications. The minimum peptide length was specified to be five amino acids. […]

UL37: HSV-1 UL37 tegument protein, a protein deamidase; SEQ ID NO. 1
cGAS deamidation in vitro (2DGE shift) (cGAS [1]): shifted cGAS toward the positive end of the gel strip
RIG-I deamidation in vitro (RIG-I): sufficient to reduce RIG-I charge
increase of the interaction between cGAS and ISD [2]: ~50%
reduction of IFN-β secretion (IFN-β): ~75%
intracellular cGAMP (cGAS [3]): ~35 ng per one million THP-1 cells
effect of added UL37 on cGAS-mediated cGAMP production (cGAS [4]): greatly reduced cGAS-mediated cGAMP production
reduction of IFNB1 and ISG56 expression (cGAS [5]; THP-1 cells, HT-DNA transfection, UL37 expression): ~60%
effect on expression of IFNB1, ISG56 and CXCL10 induced by HT-DNA (cGAS [5]; THP-1 stable cell lines): potently reduced the expression of IFNB1, ISG56 and CXCL10
increase of deamidation of the four cGAS sites (cGAS [6]): 2-3 fold
